Measurements: US20260085070A1, “HETEROCYCLIC CBL-B INHIBITORS FOR THE TREATMENT OF CANCER” (HOTSPOT THERAPEUTICS, INC., priority 2022, published 2026)
pIC50: −log10 of the molar value.

biological target: T1, Cbl-b (Homo sapiens, UniProt Q13191); test: Cbl-b LCK Ub TR-FRET assay; format: biochemical; details: Biotin-Cbl-b, His-LCK; no LCK as low control, DMSO as high control; IC50s binned A through C; read-out: CBL-B_TR-FRET_AVG_IC50
T1 construct: Biotin (biotinylated protein)
Protocol: Compounds are 3-told serially diluted in DMSO in a 384-well polypropylene plate (e.g., #P-05525-BC; Labcyte) to generate a source plate with 10 concentrations of each compound, top concentration=2 mM. 80 nL of DMSO or compounds are transferred to each well of a black 384-well ProxiPlate (e.g., #6008260; PerkinElmer) using a Labcyte Echo. 1× assay buffer (50 mM HEPES pH7.0, 100 mM NaCl, 0.01% BSA, 0.01% Triton-X100, 1 mM DTT), 2× enzyme solution (16 nM Biotin-Cbl-b or 12 nM Biotin-c-Cbl in 1× assay buffer), 2× kinase mixture (120 nM His-LCK, 1 mM ATP, 10 mM MgCl2 in assay buffer) and 2.33× detection mixture (4.66× solution 1:163 nM Anti-HA-D2 antibody (e.g., #610HADAB; PerkinElmer), 27.96 nM Streptavidin-EU (e.g., #AD0062; PerkinElmer), 1.398 mM EDTA in 1× assay buffer+4.66× solution 2: […] UBE2D2/Methylated-HA-Ubiquitin thioester adduct (e.g., BostonBiochem) in 1× assay buffer) are prepared. […] of 2× enzyme solution are added to each well containing compound, briefly centrifuged to mix, and incubated for 60 min at room temperature. […] of 2× kinase mixture is added, briefly centrifuged to mix, and incubated for 90 min. at room temperature. […] of detection mixture is added to all wells and briefly centrifuged before incubating for 20 min at room temperature. Plates are read for TR-FRET using an Envision at excitation 340 nm, emission at 615 and 665 nm, 4 flashes per well. IC50 is generated using no LCK as the low control and DMSO as the high control. Compound IC50s were binned into A through C as follows: A indicates <100 nM, B indicates 100 nM-500 nM, and C indicates >500 nM.

T1 sequence (Q13191 10-426): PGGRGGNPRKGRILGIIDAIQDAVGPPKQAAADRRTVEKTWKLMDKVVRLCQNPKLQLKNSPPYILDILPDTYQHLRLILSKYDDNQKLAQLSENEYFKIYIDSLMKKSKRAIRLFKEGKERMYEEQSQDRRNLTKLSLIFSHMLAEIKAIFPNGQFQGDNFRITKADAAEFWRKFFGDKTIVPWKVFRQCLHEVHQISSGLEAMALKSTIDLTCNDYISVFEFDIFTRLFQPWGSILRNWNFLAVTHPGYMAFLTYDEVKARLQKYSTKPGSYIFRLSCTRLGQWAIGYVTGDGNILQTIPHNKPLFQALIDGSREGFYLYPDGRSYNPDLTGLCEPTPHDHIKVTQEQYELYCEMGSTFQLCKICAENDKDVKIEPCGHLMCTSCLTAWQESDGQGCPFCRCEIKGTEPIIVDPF

pIC50	Compound
< 6.30	C[C@H]1CCCN(Cc2cc(C(F)(F)F)c3cn(-c4cc(-c5ccc(F)cc5-c5nncn5C)cc(Br)n4)c(=O)n3c2)C1 [Compound 4]
> 7.00	Cn1cnnc1-c1cc(F)ccc1-c1cccc(-n2cc3c(C(F)(F)F)cc(CNCC4(O)CCC4)cn3c2=O)c1 [Compound 1]
< 6.30	C[C@H]1CCCN(Cc2cc(C(F)(F)F)c3cn(-c4cc(-c5ccc(F)cc5-c5nncn5C)cc(Cl)n4)c(=O)n3c2)C1 [Compound 3]
< 6.30	C[C@H]1CCCN(Cc2cc(C(F)(F)F)c3cn(-c4cc(-c5ccc(F)cc5-c5nncn5C)cc(C5CC5)n4)c(=O)n3c2)C1 [Compound 2]
